Key:
[1] = target: human 5-HT2A (h5-HT2A) receptor (Homo sapiens (Human), UniProt P28223); assay: FLIPR assay, human 5-HT2A receptor under agonist mode; assay type: cell-based
Experimental: • I. Assessment of the activated effect of exemplary compounds of Formula I targeting on human 5-HT2A (h5-HT2A) receptor under agonist mode: Compound Preparation and Assay Controls I.a. Reagent and Materials:
1. Culture the cells in cell culture medium (DMEM containing 10% FBS 1× penicillin-streptomycin 300 μg/ml G418 and 100 μg/ml hygromycin B) at 37° C., 5% (v/v) CO2.
2. One day before the assays, detach the cell using TrypLE™ Express and count cells using cell counter.
3. Seed 20000 cells/well in 30 μl/well culture medium to a 384-well cell plate and incubate the cells overnight at 37° C., 5% (v/v) CO2.
4. On the assay day, prepare 2× dye solution following the manual of the FLIPR® Calcium 6 Assay Kit: i. Dilute the dye with assay buffer (20 mM HEPES in 1×HBSS, PH7.4); ii. Add probenecid to the final concentration of 5 mM; iii. Vortex vigorously for 1-2 minutes.
5. Medium from cell plate by flicking the cell plate on towel papers.
6. Add 10 μl of assay buffer and 10 μl of 2× dye solution to each well of the cell plate.
7. Put the cell plate on plate shaker, agitate the plate at 600 rpm for 2 minutes. Incubate the plate at 37° C. for 2 hours followed by additional 15-minute incubation at 25° C.
8. Prepare 3× compound in assay buffer: a. Dilute reference compounds to required concentration with DMSO. Add the compounds to a 384-well compound plate; b. Perform serial dilutions; c. Add 10 mM test compounds to the compound plate, perform 3-fold serial dilutions. d. […] Add 20 μl/well assay buffer to the compound plate; f. Mix the plate on plate shaker for 2 mins;
i. The normalized fluorescence reading (RFU) is calculated as shown follow, while Fmax and Fmin stand for maximum and minimum of calcium signal during defined time window: RFU=Fmax−Fmin
ii. Calculate the percentage activation by using following equation: […]
iii. Calculate EC50 by fitting % activation against log of compound concentrations with Hill equation using XLfit.

[2] = In vivo pharmacokinetics of I-28 and its metabolite I-45 in mice (i.v. and p.o.); design: species or system Male C57 BL/6 mice
Experimental: Male C57 BL/6 mice (25-30 g) from Charles River Labs were acclimatized for a minimum of 5 days prior to dosing. Body weights were recorded on the day of dosing.
Animals dosed p.o. were deprived of food overnight and fed ˜2 h following dosing.
Formulations were administered intravenously (i.v.) via the tail vein or orally (p.o.) by gavage with disposable feeding needles.
Serial blood samples were collected via tail snip. Terminal blood samples were collected under isoflurane anesthesia by cardiac puncture.
All blood samples were transferred into K2EDTA tubes on wet ice and centrifuged within 5 min (3200×g for 5 min at 4° C.) to obtain plasma. Plasma were stored at −80° C. until analysis.
AB Sciex QTRAP 4000 or 6500 MS/MS system equipped with an LC system with a binary pump, a solvent degasser, a thermostated column compartment and a multiplate autosampler. i. Analysis software: Phoenix® WinNonlin® 8.2 (Pharsight, Certara, Mountainview, Calif.) ii. Analysis methods: non-compartmental analysis, linear up/log down trapezoidal rule iii. PK parameters: C0, t1/2, AUC0-tlast, AUC0-∞, CL, VSS, MRT, tmax(po), Cmax(po), F, as appropriate C0 concentration extrapolated to time zero following an i.v. dose tmax time at which maximum concentration is observed Cmax maximum observed concentration Apparent t1/2 apparent terminal half-life area under the concentration vs time curve from time 0 to the time of the last AUC0-tlast measurable concentration AUC0-inf area under the concentration vs time curve from time 0 to infinity CL systemic clearance MRT0-inf mean residence time from time zero to infinity VSS steady-state volume of distribution F bioavailability=(Dose^iv*AUC^po)/(Dose^po*AUC^iv)*100

[3] = Liver microsomes stability, human; settings: for half-life at 2 μM / microsomal CLint at 2 μM: microsomes; for Remaining Percentage (%) after 60 min Human: with NADPH, 2 μM, 0.5 mg/mL microsomes
Experimental: (§1) The objective of this study was to estimate in vitro metabolic stability of I-12 in pooled human, male rat and male mouse liver microsomes. The concentrations of parent compounds in reaction systems were evaluated by LC-MS/MS for estimating the stability in pooled human, male rat and male mouse liver microsomes. The in vitro intrinsic clearances of test compounds were determined as well.
(§2) A master solution in the “Incubation Plate” containing phosphate buffer, ultra-pure H2O, MgCl2 solution and liver microsomes was made according to Table-3. The mixture was pre-warmed at 37° C. water bath for 5 minutes.
(§3) 40 μL of 10 mM NADPH solution was added to each well. The final concentration of NADPH was 1 mM. The negative control samples were prepared by replacing NADPH with 40 μL of ultra-pure H2O. Samples were prepared in duplicate. Negative controls were prepared in singlet.
(§4) The reaction was started with the addition of 4 μL of 200 μM exemplary test compounds of the application or control compounds to each master solution to get the final concentration of 2 μM. This study was performed in duplicate.
(§5) Aliquots of 50 μL were taken from the reaction solution at 0, 15, 30, 45 and 60 minutes. The reaction solutions were stopped by the addition of 4 volumes of cold methanol with IS (100 nM alprazolam, 200 nM imipramine, 200 nM labetalol and 2 μM ketoprofen). Samples were centrifuged at 3,220 g for 40 minutes. Aliquot of 90 μL of the supernatant was mixed with 90 μL of ultra-pure H2O and then was used for LC-MS/MS analysis.
(§6) LC/MS analysis was performed for all samples from this study using a Shimadzu liquid chromatograph separation system equipped with degasser DGU-20A5R; solvent delivery unit LC-30AD; system controller SIL-30AC; column oven CTO-30A; CTC Analytics HTC PAL System. Mass spectrometric analysis was performed using an Triple Quad™ 5500 instrument.
(§7) All calculations were carried out using Microsoft Excel. Peak area ratios of test compound to internal standard (listed in the below table) were determined from extracted ion chromatograms.
(§8) All calculations were carried out using Microsoft Excel. Peak areas were determined from extracted ion chromatograms. The slope value, k, was determined by linear regression of the natural logarithm of the remaining percentage of the parent drug vs. incubation time curve.
(§9) Conversion of the in vitro t1/2 (min) into the in vitro intrinsic clearance (in vitro CLint, in μL/min/mg proteins) was done using the following equation (mean of duplicate determinations): […]

[4] = Liver microsomes stability, mouse; settings: for half-life at 2 μM / microsomal CLint at 2 μM: male, mouse, microsomes; for Remaining Percentage (%) after 60 min Mouse: with NADPH, 2 μM, 0.5 mg/mL microsomes
Experimental: as §1, §2, §3, §4, §5, §6, §7, §8, §9

[5] = Liver microsomes stability, rat; settings: for half-life at 2 μM / microsomal CLint at 2 μM: male, rat, microsomes; for Remaining Percentage (%) after 60 min Rat: with NADPH, 2 μM, 0.5 mg/mL microsomes
Experimental: as §1, §2, §3, §4, §5, §6, §7, §8, §9

[6] = male, C57 BL/6, iv, i.v., I-28 2.2 mg/kg, I-28 in mouse plasma, n = 2
[7] = i.v., Metabolite (I-45) alone 1 mg/kg, mouse plasma
[8] = p.o., Metabolite (I-45) alone 10 mg/kg, mouse plasma

## [2H]C([2H])([2H])N(C([2H])([2H])[2H])C([2H])([2H])C([2H])([2H])c1c[nH]c2cccc(OC(=O)CCCCCCC/C=C\C/C=C\CCCCC)c12 [Compound I-28, 3-(2-(bis(methyl-d3)amino)ethyl-1,1,2,2-d4)-1H-indol-4-yl (9Z,12Z)-octadeca-9,12-dienoate]
[1]
  EC50: 965 nM
[2]; i.v., I-28 2.2 mg/kg, I-28 in mouse plasma, n = 2
  AUC0-inf/Dose (h*kg*ng/mL/mg): 62.1 (n = 2) h*kg*ng/mL/mg
[2]; male, C57 BL/6, iv, i.v., I-28 2.2 mg/kg (equimolar to 1 mg/kg metabolite), I-28 in mouse plasma
  C0: 448 ± 411 ng/mL
[2]; [6]
  AUC(0-inf): 137 ng·h/mL
  clearance: 385 mL/min/kg
[2]; male, C57 BL/6, iv, i.v., I-28 2.2 mg/kg, I-28 in mouse plasma, n = 2, read-out: Apparent t1/2 (converted)
  half-life: 4.92 h
[2]; male, C57 BL/6, iv, i.v., I-28 2.2 mg/kg, I-28 in mouse plasma, n = 2, read-out: MRT0-inf
  MRT inf: 0.977 h
[2]; male, C57 BL/6, iv, i.v., I-28 2.2 mg/kg, I-28 in mouse plasma, n = 2, read-out: VSS
  Vd: 17 L/kg
[2]; male, C57 BL/6, iv, i.v., I-28 2.2 mg/kg, I-28 in mouse plasma, read-out: AUC0-tlast
  AUC(0-t): 110 ± 85.9 ng·h/mL
[2]; male, C57 BL/6, po, p.o., I-28 22 mg/kg (equimolar to 10 mg/kg metabolite), I-28 in mouse plasma
  Tmax: 2.17 ± 3.32 h
[2]; male, C57 BL/6, po, p.o., I-28 22 mg/kg, I-28 in mouse plasma
  Cmax: 1.06 ± 0.447 ng/mL
[2]; p.o., I-28 22 mg/kg, I-28 in mouse plasma
  Cmax/Dose: 0.0482 ± 0.0203 kg·ng/mL/mg
[3]; human
  half-life at 2 μM: 2.23 h
  microsomal CLint at 2 μM: 10.4 µL/min/mg
[3]; human, rat and mouse liver microsomes, 60 minute
  metabolic stability in liver microsomes (in words): rapidly metabolized
[3]
  Remaining Percentage (%) after 60 min Human: 73.27%
[4]
  half-life at 2 μM: 0.276 h
  microsomal CLint at 2 μM: 83.7 µL/min/mg
  Remaining Percentage (%) after 60 min Mouse: 8.12%
[5]
  half-life at 2 μM: 0.659 h
  microsomal CLint at 2 μM: 35.1 µL/min/mg
  Remaining Percentage (%) after 60 min Rat: 34.92%

## [2H]C([2H])([2H])N(C([2H])([2H])[2H])C([2H])([2H])C([2H])([2H])c1c[nH]c2cccc(O)c12 [Compound I-45, 3-(2-(bis(methyl-d3)amino)ethyl-1,1,2,2-d4)-1H-indol-4-ol]
[1]; agonist mode, FLIPR
  agonist effect on h5-HT2A receptor (in words): active agonist
[2]; [7]
  AUC0-inf/Dose: 181 ± 30.8 kg·ng·h/mL/mg
  Apparent t1/2: 5.32 ± 2.99 h
[2]; male, C57 BL/6, mouse, plasma, iv, 1 mg/kg
  C0: 566 ± 85 ng/mL
[2]; [8]
  AUC0-inf/Dose: 79.5 ± 12.1 kg·ng·h/mL/mg
  Apparent t1/2: 4.52 ± 0.481 h
  Cmax/Dose: 70.4 ± 12.8 kg·ng/mL/mg
[3]; human
  half-life at 2 μM: 5.01 h
  microsomal CLint at 2 μM: 4.61 µL/min/mg
[3]
  Remaining Percentage (%) after 60 min Human: 87.08%
[4]
  half-life at 2 μM: 4.09 h
  microsomal CLint at 2 μM: 5.65 µL/min/mg
  Remaining Percentage (%) after 60 min Mouse: 84.40%
[5]
  half-life at 2 μM: 1.76 h
  microsomal CLint at 2 μM: 13.1 µL/min/mg
  Remaining Percentage (%) after 60 min Rat: 67.47%

— patent publication US11591353B2 (Mindset Pharma Inc., priority 2020, dated 2023)
